In ChEMBL document CHEMBL5154765, “Design, synthesis, and biological evaluation of novel spiro[pyrrolidine-2,3'-quinolin]-2'-one derivatives as potential chitin synthase inhibitors and antifungal agents” (Eur J Med Chem, 2022):

Assays:
Candida tropicalis = assay: Inhibition of Candida tropicalis ATCC750 chitin synthase at 300 ug/ml using UDP-GlcNAc as substrate incubated for 1 hr by microplate reader analysis relative to control; conditions: dose 300.0 µg/ml
[1] = Inhibition of Candida tropicalis ATCC750 chitin synthase using UDP-GlcNAc as substrate incubated for 1 hr by microplate reader analysis
Candida albicans [2] = assay: Antifungal activity against Candida albicans ATCC 76615 assessed as reduction in fungal growth incubated for 24 hrs by two fold broth dilution method; assay type: functional
Aspergillus flavus [3] = assay: Antifungal activity against Aspergillus flavus ATCC 16870 assessed as reduction in fungal growth incubated for 24 hrs by two fold broth dilution method; assay type: functional
Aspergillus fumigatus [4] = assay: Antifungal activity against Aspergillus fumigatus GIMCC 3.19 assessed as reduction in fungal growth incubated for 24 hrs by two fold broth dilution method; assay type: functional
Cryptococcus neoformans [5] = assay: Antifungal activity against Cryptococcus neoformans ATCC 32719 assessed as reduction in fungal growth incubated for 24 hrs by two fold broth dilution method; assay type: functional
Candida albicans [6] = assay: Antifungal activity against Candida albicans ATCC 76615 assessed as reduction in fungal growth in presence of sorbitol incubated for 24 hrs by two fold broth dilution method; assay type: functional
Aspergillus flavus [7] = assay: Antifungal activity against Aspergillus flavus ATCC 16870 assessed as reduction in fungal growth in presence of sorbitol incubated for 24 hrs by two fold broth dilution method; assay type: functional
Aspergillus fumigatus [8] = assay: Antifungal activity against Aspergillus fumigatus GIMCC 3.19 assessed as reduction in fungal growth in presence of sorbitol incubated for 24 hrs by two fold broth dilution method; assay type: functional
Cryptococcus neoformans [9] = assay: Antifungal activity against Cryptococcus neoformans ATCC 32719 assessed as reduction in fungal growth in presence of sorbitol incubated for 24 hrs by two fold broth dilution method; assay type: functional
Candida albicans [10] = assay: Antifungal activity against fluconazole resistant Candida albicans ATCC 76615 assessed as reduction in fungal growth incubated for 24 hrs by two fold broth dilution method; assay type: functional
Aspergillus flavus [11] = assay: Antifungal activity against fluconazole resistant Aspergillus flavus ATCC 16870 assessed as reduction in fungal growth incubated for 24 hrs by two fold broth dilution method; assay type: functional
Aspergillus fumigatus [12] = assay: Antifungal activity against fluconazole resistant Aspergillus fumigatus GIMCC 3.19 assessed as reduction in fungal growth incubated for 24 hrs by two fold broth dilution method; assay type: functional
Cryptococcus neoformans [13] = assay: Antifungal activity against fluconazole resistant Cryptococcus neoformans ATCC 32719 assessed as reduction in fungal growth incubated for 24 hrs by two fold broth dilution method; assay type: functional
Candida albicans [14] = assay: Antifungal activity against micafungin resistant Candida albicans ATCC 76615 assessed as reduction in fungal growth incubated for 24 hrs by two fold broth dilution method; assay type: functional
Candida albicans [15] = assay: Antifungal activity against Candida albicans ATCC 76615 incubated for 72 hrs in presence of fluconazole by checker board assay; assay type: functional
Aspergillus flavus [16] = assay: Antifungal activity against Aspergillus flavus ATCC 16870 incubated for 72 hrs in presence of fluconazole by checker board assay; assay type: functional
Aspergillus fumigatus [17] = assay: Antifungal activity against Aspergillus fumigatus GIMCC 3.19 incubated for 72 hrs in presence of fluconazole by checker board assay; assay type: functional
Cryptococcus neoformans [18] = assay: Antifungal activity against Cryptococcus neoformans ATCC 32719 incubated for 72 hrs in presence of fluconazole by checker board assay; assay type: functional
Candida albicans [19] = assay: Antifungal activity against Candida albicans ATCC 76615 assessed as fluconazole MIC incubated for 72 hrs by checker board assay; assay type: functional
Aspergillus flavus [20] = assay: Antifungal activity against Aspergillus flavus ATCC 16870 assessed as fluconazole MIC incubated for 72 hrs by checker board assay; assay type: functional
Aspergillus fumigatus [21] = assay: Antifungal activity against Aspergillus fumigatus GIMCC 3.19 assessed as fluconazole MIC incubated for 72 hrs by checker board assay; assay type: functional
Cryptococcus neoformans [22] = assay: Antifungal activity against Cryptococcus neoformans ATCC 32719 assessed as fluconazole MIC incubated for 72 hrs by checker board assay; assay type: functional
Cryptococcus neoformans [23] = assay: Synergistic antifungal activity against Cryptococcus neoformans ATCC 32719 assessed as fractional inhibitory concentration index incubated for 72 hrs in presence of fluconazole by checker board assay; assay type: functional
Candida albicans [24] = assay: Synergistic antifungal activity against Candida albicans ATCC 76615 assessed as fractional inhibitory concentration index incubated for 72 hrs in presence of fluconazole by checker board assay; assay type: functional
Aspergillus flavus [25] = assay: Synergistic antifungal activity against Aspergillus flavus ATCC 16870 assessed as fractional inhibitory concentration index incubated for 72 hrs in presence of fluconazole by checker board assay; assay type: functional
Aspergillus fumigatus [26] = assay: Synergistic antifungal activity against Aspergillus fumigatus GIMCC 3.19 assessed as fractional inhibitory concentration index incubated for 72 hrs in presence of fluconazole by checker board assay; assay type: functional
Candida albicans [27] = assay: Antifungal activity against Candida albicans ATCC 76615 incubated for 72 hrs in presence of polyoxin B by checker board assay; assay type: functional
Aspergillus flavus [28] = assay: Antifungal activity against Aspergillus flavus ATCC 16870 incubated for 72 hrs in presence of polyoxin B by checker board assay; assay type: functional
Aspergillus fumigatus [29] = assay: Antifungal activity against Aspergillus fumigatus GIMCC 3.19 incubated for 72 hrs in presence of polyoxin B by checker board assay; assay type: functional
Cryptococcus neoformans [30] = assay: Antifungal activity against Cryptococcus neoformans ATCC 32719 incubated for 72 hrs in presence of polyoxin B by checker board assay; assay type: functional
Candida albicans [31] = assay: Synergistic antifungal activity against Candida albicans ATCC 76615 assessed as fractional inhibitory concentration index incubated for 72 hrs in presence of polyoxin B by checker board assay; assay type: functional
Aspergillus flavus [32] = assay: Synergistic antifungal activity against Aspergillus flavus ATCC 16870 assessed as fractional inhibitory concentration index incubated for 72 hrs in presence of polyoxin B by checker board assay; assay type: functional
Aspergillus fumigatus [33] = assay: Synergistic antifungal activity against Aspergillus fumigatus GIMCC 3.19 assessed as fractional inhibitory concentration index incubated for 72 hrs in presence of polyoxin B by checker board assay; assay type: functional
Cryptococcus neoformans [34] = assay: Synergistic antifungal activity against Cryptococcus neoformans ATCC 32719 assessed as fractional inhibitory concentration index incubated for 72 hrs in presence of polyoxin B by checker board assay; assay type: functional
Candida albicans [35] = assay: Antifungal activity against Candida albicans ATCC 76615 assessed as polyoxin B MIC incubated for 72 hrs by checker board assay; assay type: functional
Aspergillus flavus [36] = assay: Antifungal activity against Aspergillus flavus ATCC 16870 assessed as polyoxin B MIC incubated for 72 hrs by checker board assay; assay type: functional
Aspergillus fumigatus [37] = assay: Antifungal activity against Aspergillus fumigatus GIMCC 3.19 assessed as polyoxin B MIC incubated for 72 hrs by checker board assay; assay type: functional
Cryptococcus neoformans [38] = assay: Antifungal activity against Cryptococcus neoformans ATCC 32719 assessed as polyoxin B MIC incubated for 72 hrs by checker board assay; assay type: functional

O=C(/C=C/C(=O)N1CCCC12Cc1ccccc1NC2=O)Nc1ccccc1[N+](=O)[O-] (centres undefined)
1 µg/mL: MIC (Aspergillus fumigatus [17])
64 µg/mL: MIC (Aspergillus flavus [7]) | MIC (Cryptococcus neoformans [9]) | MIC (Candida albicans [10]) | MIC (Aspergillus flavus [11]) | MIC (Aspergillus fumigatus [12]) | MIC (Cryptococcus neoformans [13]) | MIC (Candida albicans [14])
16 µg/mL: MIC (Cryptococcus neoformans [5])
4 µg/mL: MIC (Candida albicans [2]) | MIC (Aspergillus flavus [3]) | MIC (Aspergillus fumigatus [4]) | MIC (Cryptococcus neoformans [22]) | MIC (Aspergillus flavus [28]) | MIC (Cryptococcus neoformans [30]) | MIC (Candida albicans [35]) | MIC (Aspergillus flavus [36])
80.9%: inhibition (Candida tropicalis)
110 µM: IC50 [1]
0.75: fractional inhibitory concentration index (FICI) (Aspergillus flavus [25]) | fractional inhibitory concentration index (FICI) (Aspergillus fumigatus [26]) | fractional inhibitory concentration index (FICI) (Cryptococcus neoformans [34])
1.5: fractional inhibitory concentration index (FICI) (Aspergillus flavus [32]) | fractional inhibitory concentration index (FICI) (Aspergillus fumigatus [33])
8 µg/mL: MIC (Cryptococcus neoformans [18]) | MIC (Aspergillus fumigatus [37]) | MIC (Cryptococcus neoformans [38])
32 µg/mL: MIC (Candida albicans [6]) | MIC (Aspergillus fumigatus [8])
1: fractional inhibitory concentration index (FICI) (Cryptococcus neoformans [23]) | fractional inhibitory concentration index (FICI) (Candida albicans [24]) | fractional inhibitory concentration index (FICI) (Candida albicans [31])
2 µg/mL: MIC (Candida albicans [15]) | MIC (Aspergillus flavus [16]) | MIC (Candida albicans [19]) | MIC (Aspergillus flavus [20]) | MIC (Aspergillus fumigatus [21]) | MIC (Candida albicans [27]) | MIC (Aspergillus fumigatus [29])
